Experiments:
[1] = Cmax in Wistar rat at 50 mg/kg, po administered as single dose by LC-MS/MS analysis; format: ADME, organism-based; set-up: dose 50 mg/kg, route oral; conditions: in vivo
[2] = biological target: T1, 17-beta-hydroxysteroid dehydrogenase type 1 (Homo sapiens) (UniProt P14061); test: Inhibition of [3H]E1 binding to human recombinant 17beta-HSD1 expressed in baculovirus-infected Sf9 cells at 100 nM after 10 mins by fluid scintillation counting
T1 sequence (whole entry): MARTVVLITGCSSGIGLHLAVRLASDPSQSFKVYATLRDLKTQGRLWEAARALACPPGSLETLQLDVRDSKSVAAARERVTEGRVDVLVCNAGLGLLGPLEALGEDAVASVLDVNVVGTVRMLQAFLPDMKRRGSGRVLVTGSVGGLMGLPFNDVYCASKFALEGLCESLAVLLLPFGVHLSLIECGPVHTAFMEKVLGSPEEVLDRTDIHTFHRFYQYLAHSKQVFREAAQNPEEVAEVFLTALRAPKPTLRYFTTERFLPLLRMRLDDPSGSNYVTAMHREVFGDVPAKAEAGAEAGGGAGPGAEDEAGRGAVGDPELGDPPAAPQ

[3] = biological target: T1, 17-beta-hydroxysteroid dehydrogenase type 1 (Homo sapiens); test: Inhibition of [3H]E1 binding to human recombinant 17beta-HSD1 expressed in baculovirus-infected Sf9 cells at 1 uM after 10 mins by fluid scintillation counting
[4] = biological target: T2, 17-beta-hydroxysteroid dehydrogenase type 2 (Homo sapiens) (UniProt P37059); test: Inhibition of [3H]E2 binding to human recombinant 17beta-HSD2 expressed in baculovirus-infected Sf9 cells at 100 nM after 10 mins by fluid scintillation counting
T2 sequence (whole entry): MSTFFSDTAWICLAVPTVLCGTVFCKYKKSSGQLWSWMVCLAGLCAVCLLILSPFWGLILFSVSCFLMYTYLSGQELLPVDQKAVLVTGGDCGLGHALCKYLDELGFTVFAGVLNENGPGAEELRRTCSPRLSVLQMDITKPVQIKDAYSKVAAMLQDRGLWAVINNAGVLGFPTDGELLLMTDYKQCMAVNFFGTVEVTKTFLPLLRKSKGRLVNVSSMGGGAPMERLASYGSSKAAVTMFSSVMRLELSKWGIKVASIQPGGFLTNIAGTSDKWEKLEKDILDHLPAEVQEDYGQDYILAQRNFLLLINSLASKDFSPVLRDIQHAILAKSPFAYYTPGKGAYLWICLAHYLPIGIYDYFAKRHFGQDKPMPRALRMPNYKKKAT

[5] = biological target: T2, 17-beta-hydroxysteroid dehydrogenase type 2 (Homo sapiens); test: Inhibition of [3H]E2 binding to human recombinant 17beta-HSD2 expressed in baculovirus-infected Sf9 cells at 1 uM after 10 mins by fluid scintillation counting
[6] = biological target: T3, 17-beta-hydroxysteroid dehydrogenase type 1 (Homo sapiens, UniProt P14061); test: Displacement of [3H]E1 from human placental 17beta-HSD1 after 10 mins by fluid scintillation counting
T3 sequence (P14061 whole entry): T1 sequence (whole entry)

[7] = biological target: T4, Estrogen receptor (Homo sapiens) (UniProt P03372); test: Displacement of [3H]E2 from human recombinant ERalpha by liquid scintillation counting relative to estradiol
T4 sequence (whole entry): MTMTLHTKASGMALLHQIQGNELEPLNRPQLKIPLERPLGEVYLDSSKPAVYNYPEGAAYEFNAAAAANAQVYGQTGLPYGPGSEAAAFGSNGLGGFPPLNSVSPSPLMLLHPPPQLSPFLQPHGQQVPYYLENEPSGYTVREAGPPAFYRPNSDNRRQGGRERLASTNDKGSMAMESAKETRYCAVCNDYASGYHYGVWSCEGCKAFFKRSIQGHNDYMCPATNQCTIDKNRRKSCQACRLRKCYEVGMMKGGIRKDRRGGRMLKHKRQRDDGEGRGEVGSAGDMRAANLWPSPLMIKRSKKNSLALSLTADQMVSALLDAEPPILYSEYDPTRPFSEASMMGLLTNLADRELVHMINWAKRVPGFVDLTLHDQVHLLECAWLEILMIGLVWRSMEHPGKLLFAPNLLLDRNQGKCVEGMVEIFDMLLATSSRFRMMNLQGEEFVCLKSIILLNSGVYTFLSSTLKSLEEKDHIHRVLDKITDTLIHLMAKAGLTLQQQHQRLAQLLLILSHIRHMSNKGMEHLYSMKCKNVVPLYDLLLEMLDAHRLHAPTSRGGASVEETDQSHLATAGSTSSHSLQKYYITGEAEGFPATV

[8] = biological target: Estrogen receptor beta (Homo sapiens) (UniProt Q92731); test: Displacement of [3H]E2 from human recombinant ERbeta by liquid scintillation counting relative to estradiol
[9] = Half life in Sprague-Dawley rat liver microsomes by LC-MS/MS analysis; format: ADME, Microsome
Liver microsomes = test: Intrinsic clearance in Sprague-Dawley rat liver microsomes after 60 mins by LC-MS/MS analysis; format: ADME, Microsome; conditions: 1 h
[10] = Apparent permeability across human Caco2 cells after 180 mins by LC-MS/MS analysis; format: ADME, cell-based; conditions: Caco-2
Cytochrome P450 1A2 = biological target: T5, Cytochrome P450 1A2 (Homo sapiens, UniProt P05177); test: Inhibition of human CYP1A2; format: ADME
T5 sequence (P05177 whole entry): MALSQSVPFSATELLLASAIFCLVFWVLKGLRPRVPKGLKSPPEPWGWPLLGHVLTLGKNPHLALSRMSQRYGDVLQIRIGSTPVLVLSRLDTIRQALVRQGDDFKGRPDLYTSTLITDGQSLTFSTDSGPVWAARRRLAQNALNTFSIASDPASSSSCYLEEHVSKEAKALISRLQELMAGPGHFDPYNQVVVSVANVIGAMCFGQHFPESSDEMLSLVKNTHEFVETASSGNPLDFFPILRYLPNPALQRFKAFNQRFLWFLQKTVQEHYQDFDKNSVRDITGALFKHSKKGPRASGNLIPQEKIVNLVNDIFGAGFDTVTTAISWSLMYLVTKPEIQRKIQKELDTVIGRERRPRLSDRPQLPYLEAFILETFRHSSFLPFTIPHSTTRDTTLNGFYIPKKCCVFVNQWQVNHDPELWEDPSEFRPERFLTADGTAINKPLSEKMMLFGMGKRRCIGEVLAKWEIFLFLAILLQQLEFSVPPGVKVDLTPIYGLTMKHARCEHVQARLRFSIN

Cytochrome P450 2B6 = biological target: T6, Cytochrome P450 2B6 (Homo sapiens, UniProt P20813); test: Inhibition of human CYP2B6; format: ADME
T6 sequence (P20813 whole entry): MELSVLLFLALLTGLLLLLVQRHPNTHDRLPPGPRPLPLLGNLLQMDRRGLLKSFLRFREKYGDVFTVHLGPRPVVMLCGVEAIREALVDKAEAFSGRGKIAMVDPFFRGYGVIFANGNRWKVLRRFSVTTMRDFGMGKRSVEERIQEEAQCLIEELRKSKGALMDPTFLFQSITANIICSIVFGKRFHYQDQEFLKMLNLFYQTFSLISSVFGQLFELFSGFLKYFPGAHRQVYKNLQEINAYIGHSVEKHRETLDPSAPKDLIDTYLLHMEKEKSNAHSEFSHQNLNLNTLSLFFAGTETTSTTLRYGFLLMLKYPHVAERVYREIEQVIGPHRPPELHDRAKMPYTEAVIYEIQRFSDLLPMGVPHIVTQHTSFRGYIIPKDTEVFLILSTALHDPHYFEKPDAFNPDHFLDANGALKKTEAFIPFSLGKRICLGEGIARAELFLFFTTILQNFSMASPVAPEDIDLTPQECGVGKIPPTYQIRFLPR

Cytochrome P450 2C9 = Cytochrome P450 2C9 (Homo sapiens, UniProt P11712); test: Inhibition of human CYP2C9; format: ADME
Cytochrome P450 2C19 = Cytochrome P450 2C19 (Homo sapiens, UniProt P33261); test: Inhibition of human CYP2C19; format: ADME
Cytochrome P450 2D6 = Cytochrome P450 2D6 (Homo sapiens, UniProt P10635); test: Inhibition of human CYP2D6; format: ADME
Cytochrome P450 3A4 = Cytochrome P450 3A4 (Homo sapiens, UniProt P08684); test: Inhibition of human CYP3A4; format: ADME
Rattus norvegicus [11] = test: Clast in Wistar rat at 50 mg/kg, po administered as single dose by LC-MS/MS analysis; format: ADME, organism-based; set-up: dose 50 mg/kg, route oral; conditions: in vivo
[12] = Tmax in Wistar rat at 50 mg/kg, po administered as single dose by LC-MS/MS analysis; format: ADME, organism-based; set-up: dose 50 mg/kg, route oral; conditions: in vivo
Rattus norvegicus [13] = test: Tlast in Wistar rat at 50 mg/kg, po administered as single dose by LC-MS/MS analysis; format: ADME, organism-based; set-up: dose 50 mg/kg, route oral; conditions: in vivo
[14] = Half life in Wistar rat at 50 mg/kg, po administered as single dose by LC-MS/MS analysis; format: ADME, organism-based; set-up: dose 50 mg/kg, route oral; conditions: in vivo
[15] = AUC (0 to t) in Wistar rat at 50 mg/kg, po administered as single dose by LC-MS/MS analysis; format: ADME, organism-based; set-up: dose 50 mg/kg, route oral; conditions: plasma
[16] = biological target: T1, 17-beta-hydroxysteroid dehydrogenase type 1 (Homo sapiens); test: Inhibition of [3H]E1 binding to human placental 17beta-HSD1 at 1 uM after 10 mins by fluid scintillation counting
[17] = biological target: T2, 17-beta-hydroxysteroid dehydrogenase type 2 (Homo sapiens); test: Inhibition of [3H]E2 binding to human placental 17beta-HSD2 at 1 uM after 10 mins by fluid scintillation counting
[18] = biological target: T1, 17-beta-hydroxysteroid dehydrogenase type 1 (Homo sapiens); test: Inhibition of [3H]E1 binding to human placental 17beta-HSD1 at 100 nM after 10 mins by fluid scintillation counting
Homo sapiens = species: Homo sapiens; test: Selectivity ratio of IC50 for human placental 17beta-HSD2 to IC50 for human placental 17beta-HSD1
[19] = biological target: T3, 17-beta-hydroxysteroid dehydrogenase type 1; test: Displacement of [3H]E1 from 17beta-HSD1 in human T47D cells after 10 mins by fluid scintillation counting; format: cell-based

Chain of Cytochrome P450 2D6 (P10635 whole entry): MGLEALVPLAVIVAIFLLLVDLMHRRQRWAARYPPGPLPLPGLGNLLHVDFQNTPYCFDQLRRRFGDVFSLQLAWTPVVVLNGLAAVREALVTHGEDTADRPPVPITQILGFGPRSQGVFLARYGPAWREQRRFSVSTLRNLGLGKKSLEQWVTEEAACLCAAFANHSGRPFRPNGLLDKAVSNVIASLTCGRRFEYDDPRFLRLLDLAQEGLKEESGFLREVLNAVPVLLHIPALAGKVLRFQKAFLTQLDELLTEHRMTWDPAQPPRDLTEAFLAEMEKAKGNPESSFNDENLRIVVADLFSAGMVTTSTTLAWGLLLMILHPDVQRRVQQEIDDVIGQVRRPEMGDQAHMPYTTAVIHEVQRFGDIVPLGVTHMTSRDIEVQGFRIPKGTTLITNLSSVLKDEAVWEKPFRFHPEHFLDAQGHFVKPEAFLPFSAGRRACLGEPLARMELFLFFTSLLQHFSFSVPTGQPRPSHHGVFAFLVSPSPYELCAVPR
Chain of Cytochrome P450 2C9 (P11712 whole entry): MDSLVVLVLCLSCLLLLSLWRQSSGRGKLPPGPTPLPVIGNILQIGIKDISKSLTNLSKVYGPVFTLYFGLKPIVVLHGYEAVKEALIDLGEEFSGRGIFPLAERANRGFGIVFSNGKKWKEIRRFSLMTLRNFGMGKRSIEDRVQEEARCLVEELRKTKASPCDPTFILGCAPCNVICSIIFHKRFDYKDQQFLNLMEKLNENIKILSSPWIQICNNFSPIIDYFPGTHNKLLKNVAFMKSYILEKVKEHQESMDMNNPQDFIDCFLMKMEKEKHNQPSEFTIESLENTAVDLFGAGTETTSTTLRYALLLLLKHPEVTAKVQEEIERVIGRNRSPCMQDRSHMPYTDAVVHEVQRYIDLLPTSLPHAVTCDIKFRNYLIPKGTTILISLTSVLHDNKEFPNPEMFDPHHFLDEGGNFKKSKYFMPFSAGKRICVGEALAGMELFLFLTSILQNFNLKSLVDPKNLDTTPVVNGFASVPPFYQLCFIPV
Chain of Cytochrome P450 2C19 (P33261 whole entry): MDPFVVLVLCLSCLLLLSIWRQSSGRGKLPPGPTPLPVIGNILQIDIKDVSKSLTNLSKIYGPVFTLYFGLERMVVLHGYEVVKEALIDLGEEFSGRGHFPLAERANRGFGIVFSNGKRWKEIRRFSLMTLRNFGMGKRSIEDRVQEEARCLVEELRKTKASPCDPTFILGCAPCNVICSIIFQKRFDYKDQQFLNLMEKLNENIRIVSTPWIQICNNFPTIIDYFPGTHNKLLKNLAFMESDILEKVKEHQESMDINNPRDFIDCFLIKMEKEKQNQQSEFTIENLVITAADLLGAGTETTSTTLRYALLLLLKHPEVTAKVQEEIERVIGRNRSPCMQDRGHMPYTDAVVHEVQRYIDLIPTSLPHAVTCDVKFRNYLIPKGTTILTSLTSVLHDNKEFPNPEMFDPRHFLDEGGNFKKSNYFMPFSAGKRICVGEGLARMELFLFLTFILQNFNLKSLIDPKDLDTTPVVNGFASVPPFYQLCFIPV
Chain of Cytochrome P450 3A4 (P08684 whole entry): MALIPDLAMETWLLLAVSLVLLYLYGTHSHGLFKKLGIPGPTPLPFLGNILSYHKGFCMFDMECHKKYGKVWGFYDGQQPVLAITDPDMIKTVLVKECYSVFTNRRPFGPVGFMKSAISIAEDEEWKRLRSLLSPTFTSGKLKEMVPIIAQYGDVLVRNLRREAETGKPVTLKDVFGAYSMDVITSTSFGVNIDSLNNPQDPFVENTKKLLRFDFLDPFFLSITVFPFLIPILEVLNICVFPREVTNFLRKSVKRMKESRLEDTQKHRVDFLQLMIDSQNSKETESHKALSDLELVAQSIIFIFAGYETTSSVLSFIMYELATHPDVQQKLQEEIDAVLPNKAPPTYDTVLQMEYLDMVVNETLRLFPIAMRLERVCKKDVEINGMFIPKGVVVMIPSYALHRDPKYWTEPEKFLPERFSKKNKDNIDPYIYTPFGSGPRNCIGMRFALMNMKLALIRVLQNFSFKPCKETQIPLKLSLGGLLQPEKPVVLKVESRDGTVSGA
Chain of Estrogen receptor beta (Homo sapiens) (Q92731 whole entry): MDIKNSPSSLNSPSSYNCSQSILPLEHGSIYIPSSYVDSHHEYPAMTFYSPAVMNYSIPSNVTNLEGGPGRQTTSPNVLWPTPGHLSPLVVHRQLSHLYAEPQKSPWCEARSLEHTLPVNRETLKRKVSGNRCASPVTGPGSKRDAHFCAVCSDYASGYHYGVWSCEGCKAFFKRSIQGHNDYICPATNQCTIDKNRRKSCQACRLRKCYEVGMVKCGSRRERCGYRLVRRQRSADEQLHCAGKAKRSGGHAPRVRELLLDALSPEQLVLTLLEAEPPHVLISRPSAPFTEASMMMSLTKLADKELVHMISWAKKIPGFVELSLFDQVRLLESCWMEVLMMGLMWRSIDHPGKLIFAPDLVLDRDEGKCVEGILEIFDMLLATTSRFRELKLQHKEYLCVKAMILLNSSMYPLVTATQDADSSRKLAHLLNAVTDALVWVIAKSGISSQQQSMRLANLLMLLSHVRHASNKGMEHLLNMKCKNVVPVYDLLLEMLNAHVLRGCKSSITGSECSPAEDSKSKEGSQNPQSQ

inhibition [2] [%]	inhibition [3] [%]	inhibition [4] [%]	inhibition [5] [%]	inhibition [16] [%]	inhibition [17] [%]	inhibition [18] [%]	SMILES	also measured
–	–	–	–	< 10	< 10	–	Oc1ccccc1-c1ccc2c(-c3cncnc3)cccc2c1	–
–	–	–	–	79	9	31	COc1ncc(-c2c(O)ccc3cc(-c4cccc(O)c4)ccc23)c(OC)n1	–
83	93	< 10	40	–	–	–	Oc1cccc(-c2ccc3c(-c4cccc(O)c4)c(O)ccc3c2)c1	IC50 [6]: 36 nM; Ratio IC50 (Homo sapiens): 27; IC50 [19]: 115 nM; RBA [7]: 0.01%; RBA [8]: 0.01%; IC50 (Cytochrome P450 1A2): 19000 nM; IC50 (Cytochrome P450 2B6): 11800 nM; IC50 (Cytochrome P450 2C9): 270 nM; IC50 (Cytochrome P450 2C19): 6030 nM; IC50 (Cytochrome P450 2D6): 24800 nM; IC50 (Cytochrome P450 3A4): 40 nM
–	–	–	–	35	22	–	Oc1ccc(-c2ccc3c(-c4cncnc4)c(O)ccc3c2)cc1	–
–	–	–	–	87	19	50	Oc1cccc(-c2ccc3c(-c4ccc5[nH]ccc5c4)c(O)ccc3c2)c1	–

More lines, now with the values behind:

SMILES	inhibition [2] [%]	inhibition [3] [%]	inhibition [4] [%]	inhibition [5] [%]	inhibition [16] [%]	inhibition [17] [%]	inhibition [18] [%]	also measured
Nc1cccc(-c2c(O)ccc3cc(-c4cccc(O)c4)ccc23)c1	74	87	< 10	39	–	–	–	Cmax [1]: 44 ng/mL; IC50 [6]: 53 nM; RBA [7]: 0.01%; RBA [8]: < 0.01%; half-life [9]: 0.833 h; CL (Liver microsomes): 93 µL/min; Papp at 3 h [10]: 16 ×10⁻⁶ cm/s; IC50 (Cytochrome P450 1A2): 10500 nM; IC50 (Cytochrome P450 2B6): 10400 nM; IC50 (Cytochrome P450 2C9): 1250 nM; IC50 (Cytochrome P450 2C19): 680 nM; IC50 (Cytochrome P450 2D6): 40000 nM; IC50 (Cytochrome P450 3A4): 1070 nM; Cz (Rattus norvegicus [11]): 14 ng/mL; Tmax [12]: 2 h; tz (Rattus norvegicus [13]): 8 h; half-life [14]: 1.6 h; AUC(0-t) [15]: 337 ng·h/mL
O=C(O)CCC(=O)Nc1cccc(-c2c(O)ccc3cc(-c4cccc(O)c4)ccc23)c1	< 10	62	24	68	–	–	–	–
Cn1cc(-c2c(O)ccc3cc(-c4cccc(O)c4)ccc23)cn1	–	–	–	–	71	24	28	–
Oc1ccc2cc(-c3ccccc3)ccc2c1-c1cncnc1	–	–	–	–	22	< 10	–	–
O=C(O)c1cccc(-c2c(O)ccc3cc(-c4cccc(O)c4)ccc23)c1	45	80	< 10	34	–	–	–	–
